PubChem BioAssay (NCI)
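Five compound concentrations were applied to cells in 96-well plates for 48 hours; endpoints were derived by simple linear interpolation of the resulting dose-response curve. Definition used: TGI = concentration required for complete inhibition of growth.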

Key:
Assay in all cases: NCI anticancer screen, dose series, 48 h
UO-31 renal = tested on: UO-31 renal
MDA-MB-435 = tested on: MDA-MB-435
SNB-75 CNS = tested on: SNB-75 CNS
SK-OV-3 ovarian = tested on: SK-OV-3 ovarian
NCI-H226 lung = tested on: NCI-H226 lung
M14 melanoma = tested on: M14 melanoma
HCT-116 colon = tested on: HCT-116 colon
HCT-15 colon = tested on: HCT-15 colon
CAKI-1 renal = tested on: CAKI-1 renal
MALME-3M melanoma = tested on: MALME-3M melanoma
HOP-92 NSCLC = tested on: HOP-92 NSCLC
NCI-H460 lung = tested on: NCI-H460 lung
SN12C renal = tested on: SN12C renal
SW-620 colon = tested on: SW-620 colon
SR leukemia = tested on: SR leukemia
HT29 colon = tested on: HT29 colon
A498 renal = tested on: A498 renal
HS 578T breast = tested on: HS 578T breast
EKVX NSCLC = tested on: EKVX NSCLC
HOP-62 NSCLC = tested on: HOP-62 NSCLC

Structure (SMILES)	TGI (UO-31 renal)	TGI (MDA-MB-435)	TGI (SNB-75 CNS)	TGI (SK-OV-3 ovarian)	TGI (NCI-H226 lung)	TGI (M14 melanoma)	TGI (HCT-116 colon)	TGI (HCT-15 colon)	TGI (CAKI-1 renal)	TGI (MALME-3M melanoma)	TGI (HOP-92 NSCLC)	TGI (NCI-H460 lung)	TGI (SN12C renal)	TGI (SW-620 colon)	TGI (SR leukemia)	TGI (HT29 colon)	TGI (A498 renal)	TGI (HS 578T breast)	TGI (EKVX NSCLC)	TGI (HOP-62 NSCLC)
CC1(C)C2C=C(CCN3CCOCC3)CC1C2 (stereo not given)	> 100 µM	> 100 µM	> 100 µM	> 100 µM	> 100 µM	> 100 µM	> 100 µM	> 100 µM	> 100 µM	> 100 µM	> 100 µM	> 100 µM	> 100 µM	> 100 µM	> 100 µM	> 100 µM	> 100 µM	> 100 µM	> 100 µM	> 100 µM
CN1CCc2c3n(c4cc(Br)ccc24)[C@H](O)CCCC31 (stereo not given in full)	> 10 µM	3.27 µM	5.83 µM	> 10 µM	> 10 µM	3.24 µM	3.07 µM	> 5.77 µM	> 7.17 µM	4.63 µM	> 9.12 µM	2.97 µM	> 10 µM	3.47 µM	4.05 µM	3.28 µM	> 10 µM	4.57 µM	> 10 µM	> 10 µM
CC(=O)OC/C=C/[C@H](O[Si](C)(C)C(C)(C)C)[C@@H](O)/C=C/COC(C)=O	> 100 µM	> 100 µM	> 100 µM	> 100 µM	> 100 µM	> 100 µM	> 100 µM	> 100 µM	> 100 µM	> 100 µM	> 100 µM	> 100 µM	> 100 µM	> 100 µM	86.2 µM	> 100 µM	> 100 µM	> 100 µM	> 100 µM	> 100 µM
COc1cc(C2=C(c3cc(OC)c4ccccc4c3OC)C(=O)c3ccccc3C2=O)c(OC)c2ccccc12	> 100 µM	> 100 µM	> 100 µM	> 100 µM	> 100 µM	> 100 µM	> 100 µM	> 100 µM	> 100 µM	> 100 µM	> 100 µM	> 100 µM	> 100 µM	> 100 µM	> 100 µM	> 100 µM	> 100 µM	> 100 µM	> 100 µM	> 100 µM
OC1c2ccccc2CC12Cc1ccccc1C2 (stereo not given)	> 100 µM	> 100 µM	> 100 µM	> 100 µM	25.1 µM	> 100 µM	> 100 µM	> 100 µM	> 100 µM	> 100 µM	> 100 µM	> 100 µM	> 100 µM	> 100 µM	> 100 µM	> 100 µM	> 100 µM	> 100 µM	> 100 µM	> 100 µM
